Source: PubChem BioAssay AID248 (DTP/NCI, 2004)
Values joined by “and” are separate entries in the source; they are usually repeats but may differ in a detail not shown here. Equal values may be shown once. Toxic doses and inconclusive results are not listed. Square brackets hold non-standard residues; d marks the D form. Peptide text beside a SMILES is read from it. * marks the point of attachment. ξ: configuration not given here. Cbz = O=C(OCc1ccccc1)*; ξI = CCC(C)C(N)C(=O)O

System: L1210 leukemia ip in BDF1 mice, survival T/C
Assay: NCI In Vivo Anticancer Drug Screen. Data for tumor model L1210 Leukemia (intraperitoneal) in B6D2F1 (BDF1) mice
Details: endpoint: mean survival time, higher = longer survival
Outline: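 Survival endpoint. Drug-treated group vs vehicle group, expressed as T divided by C. Tumor passaged by transplantation.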

[1] = dose: 100.0 mg/kg/injection, schedule: Q01DX009 (ip), vehicle: saline with Tween-80
[2] = dose: 100.0 mg/kg/injection, schedule: Q04DX003 (ip), vehicle: saline with Tween-80
[3] = dose: 200.0 mg/kg/injection, schedule: Q01DX009 (ip), vehicle: saline with Tween-80
[4] = dose: 200.0 mg/kg/injection, schedule: Q04DX003 (ip), vehicle: saline with Tween-80
[5] = dose: 400.0 mg/kg/injection, schedule: Q01DX009 (ip), vehicle: saline with Tween-80
[6] = dose: 400.0 mg/kg/injection, schedule: Q04DX003 (ip), vehicle: saline with Tween-80
[7] = dose: 100.0 mg/kg/injection, schedule: Q04DX003 (ip), vehicle: Klucel (hydroxypropylcellulose) (HPC)
[8] = dose: 200.0 mg/kg/injection, schedule: Q04DX003 (ip), vehicle: Klucel (hydroxypropylcellulose) (HPC)
[9] = dose: 400.0 mg/kg/injection, schedule: Q04DX003 (ip), vehicle: Klucel (hydroxypropylcellulose) (HPC)
[10] = dose: 25.0 mg/kg/injection, schedule: Q01DX009 (ip), vehicle: saline
[11] = dose: 50.0 mg/kg/injection, schedule: Q01DX009 (ip), vehicle: saline
[12] = dose: 100.0 mg/kg/injection, schedule: Q01DX009 (ip), vehicle: saline
[13] = dose: 100.0 mg/kg/injection, schedule: Q01DX009 (ip), vehicle: Klucel (hydroxypropylcellulose) (HPC)
[14] = dose: 200.0 mg/kg/injection, schedule: Q01DX009 (ip), vehicle: Klucel (hydroxypropylcellulose) (HPC)
[15] = dose: 400.0 mg/kg/injection, schedule: Q01DX009 (ip), vehicle: Klucel (hydroxypropylcellulose) (HPC)

Structure (SMILES): O=S(=O)(NO)c1ccccc1
- T/C [1]: 98 % of control
- T/C [2]: 98 % of control
- T/C [3]: 96 % of control
- T/C [4]: 100 % of control
- T/C [5]: 98 % of control
- T/C [6]: 98 % of control

Structure (SMILES): CN(C)c1cc2c(cc1[N+](=O)[O-])-c1ccccc1C2=O
- T/C [2]: 100 % of control
- T/C [4]: 100 % of control
- T/C [6]: 100 % of control

Structure (SMILES): CCCN=Cc1ccccc1O.CCCN=Cc1ccccc1O.[Cu]
- T/C (dose: 9.5 mg/kg/injection, schedule: Q01DX001 (ip), vehicle: other): 94 % of control
- T/C (dose: 19.0 mg/kg/injection, schedule: Q01DX001 (ip), vehicle: other): 100 % of control
- T/C (dose: 38.0 mg/kg/injection, schedule: Q01DX001 (ip), vehicle: other): 97 % of control

Structure (SMILES): Cc1nc(SCc2ccccc2)[nH]c(=O)c1CC(C)O (stereo not drawn)
- T/C [7]: 104 % of control
- T/C [8]: 97 % of control
- T/C [9]: 104 % of control

Structure (SMILES): O=C(Nc1ccccc1Cl)Oc1c(Cl)cc(Cl)c2ccccc12
- T/C (dose: 25.0 mg/kg/injection, schedule: Q01DX009 (ip), vehicle: Klucel (hydroxypropylcellulose) (HPC)): 100 % of control
- T/C (dose: 50.0 mg/kg/injection, schedule: Q01DX009 (ip), vehicle: Klucel (hydroxypropylcellulose) (HPC)): 105 % of control
- T/C (dose: 100.0 mg/kg/injection, schedule: Q04DX002 (ip), vehicle: Klucel (hydroxypropylcellulose) (HPC)): 91 % of control

Structure (SMILES): CCC(C)C(NC(=O)CNC(=O)OCc1ccccc1)C(N)=O (stereo not drawn) (Cbz-Gly-[ξI]-NH2)
- T/C [2]: 103 % of control
- T/C [4]: 97 % of control
- T/C [6]: 95 % of control

Structure (SMILES): C=CCOCC(O)C[As](=O)(O)c1ccc(Cl)cc1 (stereo not drawn)
- T/C (dose: 1.56 mg/kg/injection, schedule: Q04DX003 (ip), vehicle: saline with Tween-80): 104 % of control
- T/C (dose: 3.13 mg/kg/injection, schedule: Q04DX003 (ip), vehicle: saline with Tween-80): 104 % of control
- T/C (dose: 6.25 mg/kg/injection, schedule: Q04DX003 (ip), vehicle: saline with Tween-80): 112 % of control

Structure (SMILES): OCCCC1CCCCN1 (stereo not drawn)
- T/C [10]: 100 % of control
- T/C [11]: 96 % of control
- T/C [12]: 88 % of control
- T/C (dose: 100.0 mg/kg/injection, schedule: Q04DX003 (ip), vehicle: acetone): 103 % of control

Structure (SMILES): c1ccc2cc(-c3csc4ccccc34)ccc2c1
- T/C [13]: 104 % of control
- T/C [7]: 110 % of control
- T/C [14]: 94 % of control
- T/C [8]: 97 % of control
- T/C [15]: 103 % of control
- T/C [9]: 100 % of control

Structure (SMILES): CCOC(=O)c1cn(C2OC(COC(C)=O)C(OC(C)=O)C2OC(C)=O)c2nc(SC)nc(NC(C)=O)c2c1=O (stereo not drawn)
- T/C (dose: 100.0 mg/kg/injection, schedule: Q01DX005 (ip), vehicle: saline): 97 % of control
- T/C (dose: 200.0 mg/kg/injection, schedule: Q01DX005 (ip), vehicle: saline): 91 % of control

Structure (SMILES): CCC[CH2][Sn]([CH2]CCC)([CH2]CCC)[CH2]CC(N)=O
- T/C [11]: 96 % of control and 106 % of control
- T/C [12]: 96 % of control and 106 % of control
- T/C (dose: 200.0 mg/kg/injection, schedule: Q01DX009 (ip), vehicle: saline): 101 % of control

Structure (SMILES): Cc1nc(N)nc(N)c1[N+](=O)[O-]
- T/C (dose: 65.0 mg/kg/injection, schedule: Q01DX Z (oral), vehicle: methylcellulose (MC)): 105 % of control
- T/C (dose: 125.0 mg/kg/injection, schedule: Q01DX Z (oral), vehicle: methylcellulose (MC)): 100 % of control
- T/C (dose: 250.0 mg/kg/injection, schedule: Q01DX Z (oral), vehicle: methylcellulose (MC)): 100 % of control

Structure (SMILES): CC1CC(C)/C(=N/N(C)C)C(C(O)CC2CC(=O)NC(=O)C2)C1 (stereo not drawn)
- T/C (dose: 77.8 mg/kg/injection, schedule: Q01DX Z (ip), vehicle: carboxymethylcellulose (CMC)): 106 % of control
- T/C (dose: 116.7 mg/kg/injection, schedule: Q01DX Z (ip), vehicle: carboxymethylcellulose (CMC)): 105 % of control
- T/C (dose: 262.5 mg/kg/injection, schedule: Q01DX Z (ip), vehicle: carboxymethylcellulose (CMC)): 119 % of control

Structure (SMILES): Cc1cc(C)c([N+](=O)[O-])c(C)c1C(=O)C(C)C
- T/C (dose: 100.0 mg/kg/injection, schedule: Q01DX009 (ip), vehicle: other): 105 % of control
- T/C [7]: 96 % of control
- T/C (dose: 200.0 mg/kg/injection, schedule: Q01DX009 (ip), vehicle: other): 101 % of control
- T/C [8]: 100 % of control
- T/C (dose: 400.0 mg/kg/injection, schedule: Q01DX009 (ip), vehicle: other): 95 % of control
- T/C [9]: 94 % of control

Structure (SMILES): CC(=O)C(C(C)=O)c1ccccc1.CC(=O)C(C(C)=O)c1ccccc1.[Ni]
- T/C (dose: 6.0 mg/kg/injection, schedule: Q01DX009 (ip), vehicle: saline): 94 % of control
- T/C (dose: 12.0 mg/kg/injection, schedule: Q01DX009 (ip), vehicle: saline): 94 % of control
- T/C [10]: 102 % of control

Structure (SMILES): COC(=O)C1C2CCc3cc(OC)ccc3C2=CCC1C(OC)OC (stereo not drawn)
- T/C [7]: 89 % of control
- T/C [8]: 89 % of control
- T/C [9]: 89 % of control

Structure (SMILES): CC(C)NC(=O)Nc1cccc(Cl)c1
- T/C (dose: 100.0 mg/kg/injection, schedule: Q04DX003 (ip), vehicle: gum acacia): 96 % of control
- T/C (dose: 200.0 mg/kg/injection, schedule: Q04DX003 (ip), vehicle: gum acacia): 94 % of control
- T/C (dose: 400.0 mg/kg/injection, schedule: Q04DX003 (ip), vehicle: gum acacia): 100 % of control

Structure (SMILES): C#CCC#CCCCCCC
- T/C (dose: 50.0 mg/kg/injection, schedule: Q01DX009 (ip), vehicle: saline with Tween-80): 95 % of control
- T/C [1]: 95 % of control
- T/C [3]: 95 % of control

Structure (SMILES): OCc1ccccc1
- T/C [1]: 105 % of control
- T/C [7]: 100 % of control
- T/C [3]: 102 % of control
- T/C [8]: 101 % of control
- T/C [5]: 96 % of control
- T/C [9]: 98 % of control

Structure (SMILES): O=C(Nc1cc(C(F)(F)F)cc(C(F)(F)F)c1)Nc1c(Oc2ccc(Cl)cc2Cl)ccc(Cl)c1S(=O)(=O)O
- T/C (dose: 100.0 mg/kg/injection, schedule: Q04DX003 (ip), vehicle: saline sonified): 100 % of control
- T/C (dose: 200.0 mg/kg/injection, schedule: Q04DX003 (ip), vehicle: saline sonified): 100 % of control

Structure (SMILES): CC(=O)CC(=O)NC1CCCCCC1
- T/C [13]: 92 % of control
- T/C [7]: 100 % of control
- T/C [14]: 103 % of control
- T/C [8]: 100 % of control
- T/C [15]: 97 % of control
- T/C [9]: 96 % of control

Structure (SMILES): COC(=O)Nc1cccc(C)c1C
- T/C (dose: 100.0 mg/kg/injection, schedule: Q04DX003 (ip), vehicle: other): 103 % of control
- T/C (dose: 200.0 mg/kg/injection, schedule: Q04DX003 (ip), vehicle: other): 102 % of control
- T/C (dose: 400.0 mg/kg/injection, schedule: Q04DX003 (ip), vehicle: other): 108 % of control

Structure (SMILES): O=C(CCN1CCC(c2ccccc2)CC1)c1ccc(F)cc1
- T/C (dose: 100.0 mg/kg/injection, schedule: Q01DX001 (ip), vehicle: carboxymethylcellulose (CMC)): 106 % of control
- T/C (dose: 200.0 mg/kg/injection, schedule: Q01DX001 (ip), vehicle: carboxymethylcellulose (CMC)): 93 % of control

Structure (SMILES): COc1ccc(NC(=O)Nc2ccc(C3=NCCCN3)cc2)cc1NC(=O)Nc1ccc(C2=NCCCN2)cc1
- T/C (dose: 62.0 mg/kg/injection, schedule: Q01DX Z (ip), vehicle: carboxymethylcellulose (CMC)): 115 % of control
- T/C (dose: 62.0 mg/kg/injection, schedule: Q01DX Z (oral), vehicle: carboxymethylcellulose (CMC)): 104 % of control
- T/C (dose: 125.0 mg/kg/injection, schedule: Q01DX Z (oral), vehicle: carboxymethylcellulose (CMC)): 98 % of control
- T/C (dose: 250.0 mg/kg/injection, schedule: Q01DX Z (ip), vehicle: carboxymethylcellulose (CMC)): 150 % of control
- T/C (dose: 250.0 mg/kg/injection, schedule: Q01DX Z (oral), vehicle: carboxymethylcellulose (CMC)): 104 % of control
- T/C (dose: 500.0 mg/kg/injection, schedule: Q01DX Z (oral), vehicle: carboxymethylcellulose (CMC)): 100 % of control
